# Tests used:
# [1] = system: peripheral blood mononuclear cells; conditions: cited from earlier work
# bEnd.3 endothelial cells = assay: qRT-PCR gene expression in TNF-α activated bEnd.3 endothelial cells; format: cell-based, mouse; conditions: DP 100 μM
# Description: Quantitative real-time RT-PCR analysis. 10 ng cDNA, or 2 μl cDNA for LCM studies, was amplified by qRT-PCR in a 25 μl reaction using SYBR Green PCR Master Mix (Applied Biosystems, Foster City, Calif.). Primers were designed using Primer Express software v3.0 and primer efficiency verified by slope analysis to be 100%±2.5%. qRT-PCR was performed using an ABI 7500 fast system and data analyzed using the Δ^ct method (SDS software v3.0). Amplicon sizes were approximately 100 bp.
# Cell treatment. Confluent bEnd.3 monolayers were incubated with 200 ng/ml TNF-α (Peprotech, Rocky Hill, N.J.) at 37° c. for 2 hours. […] Christoff Zitt and Armin Hatzelmann (Altana Pharma, Konstanz, Germany). Con A-activated splenocytes or CD4^+CD25^− T cells activated with plate-bound anti-CD3 mAb were treated with the same reagents for 20, 45, or 90 minutes.
# In FIG. 23A, bEnd.3 endothelial cells were activated for 2 hours with TNF-α (200 ng/ml) and (A) DP (100 μM) or vehicle (0.1% DMSO) for the final 45 minutes. PDE gene expression was then analyzed by qRT-PCR and the data presented as the mean+SEM of 3 independent experiments assayed in triplicate (*p<0.05, **p<0.001; unpaired t-test).
# The data are shown as a mean±SEM percentage of vehicle control and represent 3 independent experiments assayed in triplicate (*p<0.05, * *p<0.001; unpaired t-test).
# PDE8A [2] = conditions: expressed forms of PDE8A; read-out: reported IC50s, PDE8A; cited from earlier work
# PDE8A [3] = system: T1, PDE8A; conditions: expressed forms of full length cDNAs for PDE8; cited from earlier work
# T1 construct: other: expressed forms of full length cDNAs for PDE8
# [4] = 45 minutes, dibutryl cAMP 500 μM, 8-bromo-cAMP 500 μM
SMILES,lipopolysaccharide-stimulated release of TNF-α [1],"reduction of ICAM-1 mRNA expression (bEnd.3 endothelial cells; 45 minutes, dibutryl cAMP 500 μM)",increase of claudin-5 gene expression (bEnd.3 endothelial cells; [4]),reduction of CXCL12 gene expression (bEnd.3 endothelial cells; [4]),reduction of VCAM-1 gene expression (bEnd.3 endothelial cells; [4]),PDE4B expression in bEnd.3 cells (bEnd.3 endothelial cells; final 45 minutes of TNF-α),"expression of other PDE genes, including PDE8A, in bEnd.3 cells (bEnd.3 endothelial cells; final 45 minutes of TNF-α)",IC50 (PDE8A [2]),inhibition of expressed forms of PDE8 (PDE8A [3])
"OCCN(CCO)c1nc(N2CCCCC2)c2nc(N(CCO)CCO)nc(N3CCCCC3)c2n1 [Dipyridamole, 2,2′,2″,2′″-(4,8-di(piperidin-1-yl)pyrimido[5,4-d]pyrimidine-2,6-diyl)bis(azanetriyl)tetraethanol]",inhibit,65%,111%,69%,60%,compensatory increase,not significantly altered,4 to 9 µM,
"CC(C)Cn1c(=O)n(C)c(=O)c2[nH]cnc21 [IBMX, 3-isobutyl-1-methylxanthine]",,,,,,,,,resistant
